SMILES strings stand for the structures. Counter-ions that a name gives are not always drawn. Like-named read-outs stand apart in the source and are kept apart here.

In the test the target is IRAK4 (Homo sapiens (Human), UniProt Q9NWZ3). Briefly: IRAK4 Kinase Assay. Format: biochemical. Conditions: IMAP fluorescence polarization, 0.5 nM GST tagged IRAK4, 100 μM ATP, 30 minutes at 25° C. (In general: In fluorescence polarisation assays a small probe gives low polarisation when free and higher when bound to something large.)
IRAK4, sequence (Q9NWZ3 whole entry): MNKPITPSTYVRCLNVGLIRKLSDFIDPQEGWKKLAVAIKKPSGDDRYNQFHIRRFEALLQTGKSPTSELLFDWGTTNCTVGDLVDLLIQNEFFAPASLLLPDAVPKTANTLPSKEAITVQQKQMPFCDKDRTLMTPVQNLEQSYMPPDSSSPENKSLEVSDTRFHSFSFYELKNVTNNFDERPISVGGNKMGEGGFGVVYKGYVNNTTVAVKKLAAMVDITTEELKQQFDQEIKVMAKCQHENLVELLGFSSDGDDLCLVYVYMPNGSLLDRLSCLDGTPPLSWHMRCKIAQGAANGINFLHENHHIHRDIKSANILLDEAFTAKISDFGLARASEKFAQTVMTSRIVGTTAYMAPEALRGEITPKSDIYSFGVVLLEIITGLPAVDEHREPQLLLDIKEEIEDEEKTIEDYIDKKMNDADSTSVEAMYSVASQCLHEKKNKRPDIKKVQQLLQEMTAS

`Cn1cc(NC(=O)c2cnn3ccc(NCCN4CCOCC4)nc23)c(C(F)(F)F)n1` [Example 290, N-[1-methyl-3-(trifluoromethyl)-1H-pyrazol-4-yl]-5-[(2-morpholin-4-ylethyl)amino]pyrazolo[1,5-a]pyrimidine-3-carboxamide trifluoroacetate]: where the note is “read-out: IRAK4 IC50”, the IC50 (in general, the concentration needed to halve the response being measured) was 977 nM.
For the molecule `Cn1cc(NC(=O)c2cnn3ccc(N4CCNC(C(F)F)C4)nc23)c(C(F)(F)F)n1` (centres unmarked) [Example 16, 5-[3-(difluoromethyl)piperazin-1-yl]-N-[1-methyl-3-(trifluoromethyl)-1H-pyrazol-4-yl]pyrazolo[1,5-a]pyrimidine-3-carboxamide formate], the IC50 (read-out: IRAK4 IC50) amounted to 49 nM.
As for `Cn1cc(NC(=O)c2cnn3ccc(N4C[C@@H]5CC[C@H]4CN5)nc23)c(C#N)n1` (single isomer, unassigned) [Example 156, N-(3-cyano-1-methyl-1H-pyrazol-4-yl)-5-[(1S,4S)- or (1R,4R)-2,5-diazabicyclo[2.2.2]oct-2-yl]pyrazolo[1,5-a]pyrimidine-3-carboxamide trifluoroacetate], the IC50 (read-out: IRAK4 IC50) came to 41 nM.
Still for that read-out and setting: as for `Cn1cc(NC(=O)c2cnn3ccc(N4C[C@H](N)C[C@H](F)C4)nc23)c(C(F)F)n1` [Example 251, 5-[(3R,5S)-3-amino-5-fluoropiperidin-1-yl]-N-[3-(difluoromethyl)-1-methyl-1H-pyrazol-4-yl]pyrazolo[1,5-a]pyrimidine-3-carboxamide trifluoroacetate], the figure is 0.7 nM; as for `N#Cc1cscc1NC(=O)c1cnn2ccc(N[C@@H]3CCCC(F)(F)[C@@H]3N)nc12` [Example 143, 5-{[(1R,2R)-2-amino-3,3-difluorocyclohexyl]amino}-N-(4-cyanothiophen-3-yl)pyrazolo[1,5-a]pyrimidine-3-carboxamide], 192 nM.
On to `Cn1cc(NC(=O)c2cnn3ccc(N4C[C@H]5CC[C@@H]4CN5)nc23)c(C#N)n1` (single isomer, unassigned) [Example 157, N-(3-cyano-1-methyl-1H-pyrazol-4-yl)-5-[(1S,4S)- or (1R,4R)-2,5-diazabicyclo[2.2.2]oct-2-yl]pyrazolo[1,5-a]pyrimidine-3-carboxamide trifluoroacetate], for which the IC50 (read-out: IRAK4 IC50) stood at 60 nM.
Turning to `Cn1cc(NC(=O)c2cnn3ccc(N4CC[C@@H]5C[C@H]4CN5)nc23)c(C(F)(F)F)n1` [Example 213, 5-[(1S,5R)-2,6-diazabicyclo[3.2.1]oct-2-yl]-N-[1-methyl-3-(trifluoromethyl)-1H-pyrazol-4-yl]pyrazolo[1,5-a]pyrimidine-3-carboxamide], the IC50 (read-out: IRAK4 IC50) worked out at 3 nM.
On the same count and under the same terms, as for `Cn1cc(NC(=O)c2cnn3ccc(N4[C@@H]5CCNC[C@H]4CC5)nc23)c(C(F)(F)F)n1` (single isomer, unassigned) [Example 221, 5-[(1R,6S)- or (1S,6R)-3,9-diazabicyclo[4.2.1]non-9-yl]-N-[1-methyl-3-(trifluoromethyl)-1H-pyrazol-4-yl]pyrazolo[1,5-a]pyrimidine-3-carboxamide trifluoroacetate], the figure is 330 nM.
On the same count and under the same terms, with `Cn1cc(NC(=O)c2cnn3ccc(N4C[C@@H]5CC[C@H]4CN5)nc23)c(Br)n1` (single isomer, unassigned) [Example 164, N-(3-bromo-1-methyl-1H-pyrazol-4-yl)-5-[(1S,4S)- or (1R,4R)-2,5-diazabicyclo[2.2.2]oct-2-yl]pyrazolo[1,5-a]pyrimidine-3-carboxamide trifluoroacetate] the figure was 50 nM.
Turning to `O=C(Nc1cscc1Cl)c1cnn2ccc(N3C[C@@H]4CC[C@H]3CN4)nc12` (single isomer, unassigned) [Example 169, N-(4-chlorothiophen-3-yl)-5-[(1S,4S)- or (1R,4R)-2,5-diazabicyclo[2.2.2]oct-2-yl]pyrazolo[1,5-a]pyrimidine-3-carboxamide trifluoroacetate], the IC50 (read-out: IRAK4 IC50) amounted to 150 nM.
Same read-out and setting: as for `N[C@H]1CCCC[C@H]1Nc1ccn2ncc(C(=O)Nc3ccccc3Cl)c2n1` [Example 104, 5-{[(1R,2)S-2-aminocyclohexyl]amino}-N-(2-chlorophenyl)pyrazolo[1,5-a]pyrimidine-3-carboxamide trifluoroacetate], the figure is 1 nM.
On the same count and under the same terms, as for `N[C@H]1CCCC[C@H]1Nc1ccn2ncc(C(=O)Nc3cscc3Br)c2n1` [Example 76, 5-{[(1R,2S)-2-aminocyclohexyl]amino}-N-(4-bromothiophen-3-yl)pyrazolo[1,5-a]pyrimidine-3-carboxamide trifluoroacetate], the figure is 0.9 nM.
`Cn1cc(NC(=O)c2cnn3ccc(N[C@H]4CC(F)(F)CC[C@H]4N)nc23)c(C(F)F)n1` (single isomer, unassigned) [Example 208, 5-{[(1S,2R)- or (1R,2S)-2-amino-5,5-difluorocyclohexyl]amino}-N-[3-(difluoromethyl)-1-methyl-1H-pyrazol-4-yl]pyrazolo[1,5-a]pyrimidine-3-carboxamide] returned an IC50 (IRAK4 IC50 (nM)) of 38 nM.
For the molecule `O=C(Nc1ccccc1C(F)F)c1cnn2ccc(N3CCCNCC3)nc12` [Example 130, 5-(1,4-diazepan-1-yl)-N-[2-(difluoromethyl)phenyl] pyrazolo[1,5-a]pyrimidine-3-carboxamide], the IC50 (read-out: IRAK4 IC50) is 8810 nM.
As for `N[C@H]1CCCC[C@H]1Nc1ccn2ncc(C(=O)Nc3cscc3C(F)F)c2n1` [Example 119, 5-{[(1R,2S)-2-aminocyclohexyl]amino}-N-[4-(difluoromethyl)thiophen-3-yl]pyrazolo[1,5-a]pyrimidine-3-carboxamide trifluoroacetate], the IC50 (read-out: IRAK4 IC50) came to 0.5 nM.
Turning to `O=C(Nc1ccccc1C(F)F)c1cnn2ccc(N3CC4CCC3CN4)nc12` (centres unmarked) [Example 146, 5-(2,5-diazabicyclo[2.2.2]oct-2-yl)-N-[2-(difluoromethyl)phenyl] pyrazolo[1,5-a]pyrimidine-3-carboxamide trifluoroacetate], the IC50 (read-out: IRAK4 IC50) turned out to be 1460 nM.
Take `Cn1cc(NC(=O)c2cnn3ccc(NC4CNCCC4F)nc23)c(C(F)F)n1` (single isomer, unassigned) [Example 236, N-[3-(difluoromethyl)-1-methyl-1H-pyrazol-4-yl]-5-[(3R or S, 4R or S-4-fluoropiperidin-3-yl)amino]pyrazolo[1,5-a]pyrimidine-3-carboxamide]: under “read-out: IRAK4 IC50”, the IC50 turned out to be 0.6 nM.
For `N[C@@H]1[C@H](Nc2ccn3ncc(C(=O)Nc4ccsc4Cl)c3n2)CCCC1(F)F` [Example 190, 5-{[(1R,2R)-2-amino-3,3-difluorocyclohexyl]amino}-N-(2-chlorothiophen-3-yl)pyrazolo[1,5-a]pyrimidine-3-carboxamide], the IC50 (read-out: IRAK4 IC50) is 891 nM.
The same measure, in the same setting: as for `Cn1cc(NC(=O)c2cnn3ccc(N4CCC[C@H](N)C4)nc23)c(C(F)(F)F)n1` [Example 44, 5-[(3S)-3-aminopiperidin-1-yl]-N-[1-methyl-3-(trifluoromethyl)-1H-pyrazol-4-yl]pyrazolo[1,5-a]pyrimidine-3-carboxamide], the figure is 5 nM.
Consider `Cn1cc(NC(=O)c2cnn3ccc(NC4CNCCC4F)nc23)c(C(F)F)n1` (single isomer, unassigned) [Example 241, N-[3-(difluoromethyl)-1-methyl-1H-pyrazol-4-yl]-5-[(3R or S, 4R or S-4-fluoropiperidin-3-yl)amino]pyrazolo[1,5-a]pyrimidine-3-carboxamide], for which the IC50 (read-out: IRAK4 IC50) was determined as 3 nM.
